According to patent US20230104487A1, “11-(4-CHLOROPHENYL)-4-(2,3-DIHYDRO-1H-INDOLE-1-CARBONYL)-3,11-DIMETHYL-5,10,DIOXATRICYCLO[7.4.0.0,2,6,]TRIDECA-1,3,6,8-TETRAEN-13-ONE AND DERIVATIVES AS DESTABILIZER OF CRY1 FOR THE TREATMENT OF CIRCADIAN RHYTHM ASSOCIATED DISEASES AND DISORDERS” (KOC UNIVERSITESI, priority 2019, published 2023):

What was measured:
[1] = tested on: LUC; assay: LUC degradation control in HEK293T; format: cell-based, firefly
From the text: To insert Cry1-Luc, Cry2-Luc constructs and only Luc into pcDNA4A-myc-his plasmid, coding sequence of mouse Cry1 and firefly Luciferase in pG5luc plasmid (Addgene) was amplified with primers having EcoRV-NotI and NotI-XhoI flanking sites for Crys and Luc, respectively. Product size was verified by visualizing in agarose gel and product was isolated from the gel by using NucleoSpin PCR and Gel purification kit (Macherey Nagel). pcDNA4A plasmid having Luc was double digested with NotI and XhoI and used as insert; Cry1 pcDNA4A-myc-his and Cry2 pcDNA4A-myc-his plasmids were double digested with NotI and XhoI FastDigest enzymes (Thermo Scientific) and used as host plasmids. Hosts were treated with FASTAP (Thermo Scientific) to prevent self-annealing. After gel isolation and cleaning inserts with Gel purification kit (Macherey Nagel) and destination vectors were ligated by using T4 DNA ligase (Thermo Scientific).
40 ng of Cry1-Luc, Cry2-Luc, mutant Cry1-Luc plasmids or 5 ng Luc plasmid were reverse transfected to 4×10^4 HEK293T cells on opaque 96-well plate with flat bottom via PEI transfection reagent. 24 h after transfection, cells were treated with molecules or solvent (DMSO). […] Luminescence readings were recorded every 10 min at 32° C. for 24 h. Half-life of protein was calculated via one-phase exponential decay fitting function in GraphPad Prism5 software. […]

[2] = tested on: C57BL/6J mice; assay: Circadian behavioral analysis (locomotor activity); format: in vivo, mouse; details: constant dark conditions
Method: C57BL/6J mice were synchronized 10 days under 12 h:12 h light-dark cycles. After 10 days mice were treated with intraperitoneal dose of 60 mg/kg FORMULA I or vehicle for 14 days and kept under constant darkness (n=12). Locomotor activity of mice were recorded for additional 10-days without any injection. During these days locomotor activity of mice were recorded by ClockLab (Actimetrics) software program. FIG. 7A Representative locomotor activity of mice injected with vehicle (n=5) or FIG. 7B FORMULA I (n=7). FIG. 7C Period and FIG. 7D amplitude of mice under different conditions and injected with vehicle or FORMULA I. Period and amplitude values were calculated by using ClockLab Analysis (Actimetrics) program. Statistical significance was evaluated using one-way analysis of variance (ANOVA), followed by a Tukey's multiple comparisons test using Prism software (GraphPad Software)
Mice were housed in individual cages within a temperature- and humidity-controlled, light-tight enclosure. Each cage contained a running wheel. Food and water were allowed ad libitum. Animals were entrained to a 12:12 h L:D cycle for ≥2 weeks before being released into constant darkness. Then, vehicle (n=5) and FORMULA I (n=6) administered to animals for 5 days and then animals were kept under constant conditions for more than 2 weeks. […]

In the case of `Cc1c(C(=O)N2CCc3ccccc32)oc2ccc3c(c12)C(=O)CC(C)(c1ccc(Cl)cc1)O3` (stereo not drawn) [FORMULA I, 11-(4-chlorophenyl)-4-(2,3-dihydro-1H-indole-1-carbonyl)-3,11-dimethyl-5,10,dioxatricyclo[7.4.0.0,2,6,]trideca-1,3,6,8-tetraen-13-one], the “stability of LUC” value [1] is reported as “no effect on the stability of LUC”, the “amplitude of locomotor activity” value [2] is reported as “statistically significant impact on the amplitude” and the “shortening of locomotor period length versus vehicle” value [2] is reported as “approximately 14 min”.
